In patent US20090149531A1, “CHEMICAL COMPOSITION DERIVED FROM P-HYDROXYPHENYL PROPIONIC ACID FOR THE TREATMENT OF PSORIASIS” (APOTEKNOS PARA LA PIEL, S.L., priority 2007, published 2009):

Tests used:
[1] = Body weight in the hairless rat study; type: in vivo, hairless rats; conditions: Calcitriol 0.01% topical once a day
Method: (§1) To do this Calcitriol was used as the reference product at 0.01% and compound A was used as the test product at 1% and 0.1% (100 μg/cm^2 and 10 μg/cm^2, respectively). A Control Group was included, administered only with the vehicle (absolute ethanol).
(§2) The treatments were administered topically, once a day for 10 days (100 μg/side/animal). The animals were weighed on a daily basis throughout the study and the grade of erythema was evaluated (0=Absence of erythema, 1=Low grade erythema, 3=High grade erythema). On the last day of the study, day 11, the amount of corneous material extracted from the epidermis of the animals was evaluated.

[2] = Signs of toxicity and deaths in the hairless rat study; type: in vivo
Method: A Control Group was included, administered only with the vehicle (absolute ethanol).
as §2

[3] = Assessment of erythema in the hairless rat study; type: in vivo, hairless rats; conditions: Calcitriol 0.01% topical once a day, 0=absence, 1=low grade, 3=high grade
Method: as §1, §2

[4] = test system: cell hyperproliferation in hairless rats; assay: Model of desquamation in hairless rats: corneous material extracted; type: in vivo
Method: The activity of compound A on cell hyperproliferation in hairless rats was evaluated using the model of desquamation in hairless rats described in the publication: Bräutigam, M., Hübner, H., Rach, P., Thieroff-Ekerdi, R. “Effects of Calcipotriol (MC 903) and Calcitriol after Topical Application on the Skin of Hairless Rats”, Skin Pharmacol 1992; 5:87-92.
as §1
The animals were randomly distributed into the following experimental groups:
as §2

[5] = Calcitriol 0.01% (1 μg/cm^2) topical once a day for 10 days, day 11

## C=C1/C(=C\C=C2/CCC[C@]3(C)[C@@H]([C@H](C)CCCC(C)(C)O)CC[C@@H]23)C[C@@H](O)C[C@@H]1O [Calcitriol, 1-alpha,25-dihydroxycholecalciferol, reference compound]
[1]; Baseline
  Body weight: 0.0 ± 0.00 g
[1]; Day 2
  Body weight: 0.0 ± 0.00 g
[1]; Day 3
  Body weight: 0.0 ± 0.00 g
[1]; Day 4
  Body weight: 0.0 ± 0.00 g
[1]; Day 5
  Body weight: 0.0 ± 0.00 g
[1]; Day 6
  Body weight: 0.0 ± 0.00 g
[1]; Day 7
  Body weight: 0.0 ± 0.00 g
[1]; Day 8
  Body weight: 1.0 ± 0.00 g
[1]; Day 9
  Body weight: 1.5 ± 0.22 g
[1]; Day 10
  Body weight: 2.0 ± 0.20 g
[1]; Day 11
  Body weight: 2.0 ± 0.00 g
[2]; Calcitriol 0.01% group (n 6), repeated administration
  animals that died before the end of the study: Three
[2]; rat, in vivo
  signs of toxicity: clear signs of toxicity were detected
[3]; Baseline
  Assessment of erythema (mean grade): 0.0 ± 0.00
[3]; Day 2
  Assessment of erythema (mean grade): 0.0 ± 0.00
[3]; Day 3
  Assessment of erythema (mean grade): 0.0 ± 0.00
[3]; Day 4
  Assessment of erythema (mean grade): 0.0 ± 0.00
[3]; Day 5
  Assessment of erythema (mean grade): 0.0 ± 0.00
[3]; Day 6
  Assessment of erythema (mean grade): 0.0 ± 0.00
[3]; Day 7
  Assessment of erythema (mean grade): 0.0 ± 0.00
[3]; Day 8
  Assessment of erythema (mean grade): 1.0 ± 0.00
[3]; Day 9
  Assessment of erythema (mean grade): 1.5 ± 0.22
[3]; Day 10
  Assessment of erythema (mean grade): 2.0 ± 0.20
[3]; Day 11
  Assessment of erythema (mean grade): 2.0 ± 0.00
[4]; [5]
  amount of corneous material extracted, total sum of the right and left flanks, Portal No, 1: 13.5 ± 4.89 mg
  amount of corneous material extracted, total sum of the right and left flanks, Portal No, 2: 7.7 ± 1.43 mg
  amount of corneous material extracted, total sum of the right and left flanks, Portal No, 3: 5.9 ± 0.94 mg
  amount of corneous material extracted, total sum of the right and left flanks, Portal No, 4: 4.5 ± 0.60 mg
  amount of corneous material extracted, total sum of the right and left flanks, Portal No, 5: 3.7 ± 0.35 mg
  amount of corneous material extracted, total sum of the right and left flanks, Portal No, 6: 21.7 ± 2.07 mg
[4]; Calcitriol 0.01%, topical 0.2 ml/animal
  amount of corneous material extracted compared with the other experimental groups: clearly greater than that extracted in the other experimental groups
